“And” between values parts separate entries of the source, which are not always exact repeats. Identical values can stand only once. Like-named read-outs stand apart in the source and are kept apart here.
Key:
in vivo = conditions: rat
Method: Male Wistar Han rats (250–350 g) obtained at an age of 9–10 weeks from Charles River Laboratories were used for the studies and kept in housing groups of two or three. Experiments were performed at the age of 10–11 weeks. Intravenous (i.v.) administrations were carried out using tail vein injections. Peptides were dissolved in pure DMSO and diluted with 5% Cremophor EL in water (5% DMSO final) at a concentration of 0.5 mg ml^−1. I.v. administration was carried out at a dose of 1 mg kg^−1 body weight via the left lateral tail vein of rats (n = 3) using an Insyte-W 24 G × 0.75 in. (0.7 mm × 19 mm) temporary peripheral venous catheter (BD Biosciences, 381312). Before injecting the peptide solution, a correct placement of the catheter was confirmed by an apparent reflux of blood through the catheter. Orally (p.o.) administrated peptides were dissolved in DMSO and diluted with 10% Cremophor EL in water (5% DMSO final) at a concentration of 1 mg ml^−1 and administrated by oral gavage to rats (n = 3) at a dose of 10 mg kg^−1. Rats used for oral administration were fasted overnight for 14 h and provided access to food again 2 h after administration, whereas access to water was not restricted throughout the whole experimental procedure. Volumes of 100 μl of blood samples were collected via the right lateral tail vein at different timepoints after i.v. or p.o. administration into heparinized tubes (Sarstedt, 20.1282); the samples were stored on ice for up to 4 h; and plasma was obtained by centrifugation at 2,000g for 5 min at 4 °C. A volume of 40 μl of plasma was added to 120 μl of an acetonitrile:water (9:1) solution containing an internal standard (5 μg ml^−1). Samples were vortexed for 10 s and sonicated for 10 min, and precipitated plasma proteins were pelleted by centrifugation at 16,000g for 15 min at 4 °C. Volumes of 120 μl of supernatant were transferred to a new tube, and solvent was evaporated in a rotary vacuum concentrator (RVC 2–33 CDplus IR, Christ) for 2 h at 40 °C. Dried residues were dissolved in 20 μl of a water:acetonitrile (7:3) (v/v) solution, centrifuged at 14,000g for 5 min and analyzed by LC–MS. Peptides were quantified by extracting ion chromatograms corresponding to their respective mass, integrating the area under the peptide peak and calculating the concentrations by normalization to a calibration curve. Calibration curves were prepared by analyzing spiked samples of blood or plasma with known concentrations of peptide. The absolute oral bioavailability was calculated using equation (6).6 F=AUCp.o./AUCi.v.×Dosei.v./Dosep.o.×100 where AUCp.o. and AUCi.v. are calculated from a plasma concentration versus time curve using the linear trapezoidal rule, and Dosei.v. and Dosep.o. are the intravenously or orally administrated amount of peptide in mg kg^−1.

[1] = Peptide stability in simulated intestinal fluid (SIF); format: in vitro ADME, porcine; design: remaining at 8 h: dose or concentration left out as unconfirmed; conditions: pH 6.8
How it was run: (§1)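 Peptide from a 1 mM DMSO stock was added to fluid pre-warmed at 37 °C. SGF was pH 1.2 NaCl with porcine pepsin (0.32 g per 100 ml), and SIF was pH 6.8 potassium phosphate with porcine pancreatin (1 g per 100 ml). Supernatant peptide was quantified by LC–MS, with residual expressed as T1/T0.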

porcine pancreatin = test: as above; format: in vitro ADME; design: remaining at 8 h: dose or concentration left out as unconfirmed; conditions: after 8 h vs 0 h (TIC); for SIF stability, Residual peptide Average: average of R1-R3; for SIF stability, Residual peptide: single replicates R1-R3
How it was run: as §1

human α-thrombin = human α-thrombin (Homo sapiens, UniProt P00734); test: Screen of 8,448-member cyclic peptide library against thrombin (crude reactions, 10 μM); format: biochemical; conditions: 10 μM crude peptide, slopes normalized to DMSO; for Residual thrombin activity: Replica: repeated acylation and screen
Method: The cyclic peptides were N-acylated with activated carboxylic acids as follows. Volumes of 25 nl of cyclic peptides and 25 nl of activated carboxylic acids were transferred in a combinatorial fashion to 384-well microplates (Greiner, 781076) using an Echo 650 acoustic liquid handler (Labcyte). Plates were centrifuged at 2,000g for 2 min and incubated at room temperature for 8 h. […] The reaction products were screened for thrombin inhibition as follows. […] Thrombin inhibition was determined by measuring the fluorescent gain over time. Fluorescence intensity was measured on a Tecan Infinite […] microplate reader for 30 min at 25 °C with a fluorescent readout every 3 min (excitation: 360 nm, emission: 465 nm). Protease inhibition was calculated by comparing the enzymatic activity to a control without cyclic peptide. page 48: Supplementary Tables Supplementary Table 1 […] Cyclic peptide high-throughput screen. Category Parameter Description Assay Type of assay In vitro Target Human α thrombin Primary measurement Proteolytic cleavage of fluorogenic substrate Key reagents […] (Bachem) Assay protocol Described in Materials section “Thrombin library synthesis and screening” Additional comments - […] Library composition Cyclic peptides Source Combinatorial synthesis. Described in Methods section “Thrombin library synthesis and screening” Additional comments - Screen Format 384 well microtiter plates (Greiner, 781076) Concentration(s) tested 10 µM Plate controls 20 wells DMSO, 4 wells human α thrombin inhibitor R-11-25-2 (DOI: 10.1039/d0sc01944e) Reagent/ compound dispensing system Echo 650 (Beckman Coulter), […]) Detection instrument and software Tecan Infinite […] microplate reader Assay validation/QC Z' score: 0.86 Correction factors - Normalization Percent fluorescent gain over time as compared to DMSO Additional comments - […] Additional assay(s) Resynthesis and retesting of 20 best hits in original assay Confirmation of hit purity and structure Compounds were resynthesized and verified analytically Additional comments - 47

[2] = male, Wistar Han, iv, 1 mg/kg, Concentration in blood samples
[3] = male, Wistar Han, po, 10 mg/kg, Concentration in blood samples
[4] = pig, simulated gi fluid, 8 h, 37 °C, read-out: Proteolytic stability: SIF (8 h) % remaining
[5] = simulated gi fluid, 8 h, 37 °C, read-out: Proteolytic stability: SIF (8 h) % remaining
[6] = male, Wistar Han, iv, 1 mg/kg, Plasma Concentration (uM)

O=C1C[C@H]2CCCN2C(=O)[C@H](Cc2ccccc2)NC(=O)[C@@H](NC(=O)c2ccc(Cl)cc2)CCC=CCCCCN1 (mixture of isomers) [peptide 46]
Concentration in blood samples (in vivo; male, Wistar Han, iv, 1 mg/kg, 1 h): 90 nM | level at time molar at 0.08 h (in vivo; [2]): 1.31 µM | level at time molar at 0.25 h (in vivo; [2]): 0.59 µM | level at time molar at 0.5 h (in vivo; [2]): 280 nM | level at time molar at 1 h (in vivo; [2]): 120 nM | level at time molar at 2 h (in vivo; [2]): 0.0535 µM | level at time molar at 0.5 h (in vivo; [3]): 290 nM | level at time molar at 1 h (in vivo; [3]): 240 nM | level at time molar at 2 h (in vivo; [3]): 0.2 µM | level at time molar at 8 h (in vivo; [3]): 17.1 nM | bioavailability (in vivo; po): 18.4 ± 1.9% | Cmax (in vivo; po, 10 mg/kg): 400 ± 120 nM | remaining at 8 h [1, 4]: 93 ± 12%

CN1CCC(=O)NCCSCCS(=O)(=O)CCSC[C@H](NC(=O)c2ccc(Cl)s2)C(=O)N[C@@H](Cc2ccccc2)C1=O [compound 14]
SIF stability, Residual peptide Average (porcine pancreatin): 87.22 | SIF stability, Residual peptide (porcine pancreatin): 90.22 and 74.69 and 96.74 | remaining at 8 h [1, 4]: 87 ± 11% | Residual thrombin activity: Screen (human α-thrombin): 29.3 | Residual thrombin activity: Replica (human α-thrombin): 33.0

O=C1C[C@H]2CCCN2C(=O)[C@H](Cc2ccccc2)NC(=O)[C@@H](NC(=O)c2ccc(Cl)s2)CSCc2cccc(n2)CSCCN1 [compound 31]
SIF stability, Residual peptide Average (porcine pancreatin): 75.90 | SIF stability, Residual peptide (porcine pancreatin): 75.23 and 67.97 and 84.49 | remaining at 8 h [1, 5]: 76 ± 8%

O=C1C[C@H]2CCCN2C(=O)[C@H](Cc2ccccc2)NC(=O)[C@@H](NC(=O)c2ccc(Cl)s2)CCSCc2cccc(n2)CSCCN1 [compound 33]
SIF stability, Residual peptide Average (porcine pancreatin): 68.57 | SIF stability, Residual peptide (porcine pancreatin): 74.90 and 62.29 and 68.52 | remaining at 8 h [1, 5]: 69 ± 6%

O=C1C[C@H]2CCCN2C(=O)[C@H](Cc2ccccc2)NC(=O)[C@@H](NC(=O)c2ccc(Cl)s2)CCSC/C=C/CSCCN1 [compound 34]
SIF stability, Residual peptide Average (porcine pancreatin): 62.79 | SIF stability, Residual peptide (porcine pancreatin): 66.10 and 55.58 and 66.70 | remaining at 8 h [1, 5]: 63 ± 6%

O=C1C[C@H]2CCCN2C(=O)[C@H](Cc2ccccc2)NC(=O)[C@@H](NC(=O)c2ccc(Cl)s2)CCCSCc2cccc(n2)CSCCN1 [compound 35]
SIF stability, Residual peptide (porcine pancreatin): 32.04 and 28.68 and 33.58 | remaining at 8 h ([1]; pig, after 8 h vs 0 h (TIC), average of R1-R3, read-out: SIF stability, Residual peptide Average): 31.4% | remaining at 8 h [1, 5]: 31 ± 3%

O=C1C[C@H]2CCCN2C(=O)[C@H](Cc2ccccc2)NC(=O)[C@@H](NC(=O)c2ccc(Cl)s2)CCCSC/C=C/CSCCN1 [compound 36]
SIF stability, Residual peptide Average (porcine pancreatin): 42.16 | SIF stability, Residual peptide (porcine pancreatin): 44.45 and 36.26 and 45.77 | remaining at 8 h [1, 5]: 42 ± 5%

O=C1CSCCC[C@H](NC(=O)c2ccc(Cl)s2)C(=O)N[C@@H](Cc2ccccc2)C(=O)N2CCC[C@@H]2CC(=O)NCCSC1 [compound 37]
SIF stability, Residual peptide Average (porcine pancreatin): 83.45 | SIF stability, Residual peptide (porcine pancreatin): 93.62 and 67.15 and 89.58 | remaining at 8 h [1, 5]: 83 ± 14%

O=C1C[C@H]2CCCN2C(=O)[C@H](Cc2ccccc2)NC(=O)[C@@H](NC(=O)c2ccc(Cl)s2)CSCCS(=O)(=O)CCSCCN1 [peptide 11]
SIF stability, Residual peptide Average (porcine pancreatin): 14.00 | remaining at 8 h [1, 5]: 14 ± 4.4% | Residual thrombin activity: Screen (human α-thrombin): 3.1 | Residual thrombin activity: Replica (human α-thrombin): 1.5

O=C1C[C@H]2CCCN2C(=O)[C@H](Cc2ccccc2)NC(=O)[C@@H](NC(=O)c2ccc(Cl)s2)CSC/C=C/CSCCN1 [peptide 32]
SIF stability, Residual peptide Average (porcine pancreatin): 82.44 | SIF stability, Residual peptide (porcine pancreatin): 91.81 and 71.29 and 84.22 | remaining at 8 h [1, 5]: 82 ± 10%

O=C1C[C@H]2CCCN2C(=O)[C@H](Cc2ccccc2)NC(=O)[C@@H](NC(=O)c2ccc(Cl)s2)CCC=CCCCCN1 [peptide 43]
level at time molar at 0.08 h (in vivo; [6]): 3.19 µM | level at time molar at 0.25 h (in vivo; [6]): 1.63 µM | level at time molar at 2 h (in vivo; [6]): 0.29 µM | Tmax (in vivo; male, Wistar Han, po): 30 min | bioavailability (in vivo; po): 4.5 ± 2.5% | Cmax (in vivo; po, 10 mg/kg): 183 ± 96 nM | remaining at 8 h [1, 4]: 91 ± 9%
